Values after ≈ are worked out from the molar mass of the structure shown. Ends that are not written are not given here.

For one data set, the system named is P. aeruginosa BAA-2112. On the set-up: key: R = Resistant; S = Suspectible; I = Intermediate; NT = Note Tested. The settings on record: strain BAA-2112, isolated from human sputum; cited from earlier work.
The next data set relates to P. aeruginosa BAA-2111. On the set-up: key: R = Resistant; S = Suspectible; I = Intermediate; NT = Note Tested. The settings on record: strain BAA-2111, isolated from human sputum; cited from earlier work.
In another data set the test system is P. aeruginosa BAA-2110. Details: key: R = Resistant; S = Suspectible; I = Intermediate; NT = Note Tested. The settings on record: strain BAA-2110, isolated from human sputum; cited from earlier work.
The next data set relates to P. aeruginosa BAA-2113. On the set-up: key: R = Resistant; S = Suspectible; I = Intermediate; NT = Note Tested. The settings on record: strain BAA-2113, isolated from human sputum; cited from earlier work.
For another data set, the system named is P. aeruginosa BAA-2114. Details: key: R = Resistant; S = Suspectible; I = Intermediate; NT = Note Tested. The settings on record: strain BAA-2114, isolated from human sputum; cited from earlier work.
Another data set concerns P. aeruginosa BAA-2109. Details: key: R = Resistant; S = Suspectible; I = Intermediate; NT = Note Tested. The settings on record: strain BAA-2109, isolated from human sputum; cited from earlier work.
The nature of another data set: in vitro. The settings on record: human, Cytotox CC50.
The subject of another data set is P. aeruginosa BAA-2108. Details: key: R = Resistant; S = Suspectible; I = Intermediate; NT = Note Tested. The settings on record: strain BAA-2108, isolated from human sputum; cited from earlier work.
The nature of data set [1]: Cytotoxicity to mammalian cells. The settings on record: human, 293T cells.
The test system of another data set is 293T. Put plainly: Cytotoxicity to mammalian cells.
The conditions of data set [2]: LC-MS; 10% human serum (FIG. 8).
Procedure: Assessment of Serum Stability. […] Twenty μl of each test article was placed in a 2.0 ml round bottom microfuge tube. […] Assay tubes were placed at 37° C. in a rotating rack between time-points. […] Supernatant from each tube was collected and frozen at −20° C. for analysis. Samples were harvested and processed at various time-points up to 6 hours.

As for `NC[C@H]1O[C@H](O[C@H]2[C@H](O)[C@@H](O[C@H]3O[C@H](CO)[C@@H](O)[C@H](N)[C@H]3O)[C@H](N)C[C@@H]2N)[C@H](N)C[C@@H]1O` [Tobramycin], the antibiotic resistance phenotype entry in the data set on P. aeruginosa BAA-2112, in the data set with P. aeruginosa BAA-2111, in the data set with P. aeruginosa BAA-2110, in the data set on P. aeruginosa BAA-2113, in the data set on P. aeruginosa BAA-2114 and with P. aeruginosa BAA-2109 was “S” in each case.
On to `CC[C@H](C)[C@H](NC(=O)[C@H](CCCCN)NC(=O)[C@H](CCC(=O)O)NC(=O)[C@H](CCCCN)NC(=O)[C@H](CO)NC(=O)[C@H](CCCCN)NC(=O)[C@H](CCCNC(=N)N)NC(=O)[C@H](Cc1ccccc1)NC(=O)[C@H](Cc1ccccc1)NC(=O)[C@H](CC(=O)O)NC(=O)CNC(=O)[C@H](CC(C)C)NC(=O)[C@H](CC(C)C)NC(=O)CNC(=O)CNC(=O)CN)C(=O)NCC(=O)N[C@@H](CCCCN)C(=O)N[C@@H](CCC(=O)O)C(=O)N[C@@H](Cc1ccccc1)C(=O)N[C@@H](CCCCN)C(=O)N[C@@H](CCCNC(=N)N)C(=O)N[C@H](C(=O)N[C@H](C(=O)N[C@@H](CCC(N)=O)C(=O)N[C@@H](CCCNC(=N)N)C(=O)N[C@H](C(=O)N[C@@H](CCCCN)C(=O)N[C@@H](CC(=O)O)C(=O)N[C@@H](Cc1ccccc1)C(=O)N[C@@H](CC(C)C)C(=O)N[C@@H](CCCNC(=N)N)C(=O)N[C@@H](CC(N)=O)C(=O)N[C@@H](CC(C)C)C(=O)N[C@H](C(=O)N1CCC[C@H]1C(=O)N[C@@H](CCCNC(=N)N)C(=O)N[C@H](C(=O)N[C@@H](CCC(=O)O)C(=O)N[C@@H](CO)C(=O)O)[C@@H](C)O)C(C)C)[C@@H](C)CC)C(C)C)[C@@H](C)CC` [Peptide P265], for which, in “in vitro”, the 50% cytotoxic concentration (CC50) (commonly the concentration that lowers cell viability or growth by half) came to 90 µg/mL (≈ 19.3 µM).
With `CO/N=C(\C(=O)N[C@@H]1C(=O)N2C(C(=O)O)=C(CSc3nc(=O)c(=O)[nH]n3C)CS[C@H]12)c1csc(N)n1` [Ceftriaxone], the antibiotic resistance phenotype result with P. aeruginosa BAA-2112, with P. aeruginosa BAA-2111, with P. aeruginosa BAA-2113, in the data set with P. aeruginosa BAA-2114 and in the data set on P. aeruginosa BAA-2109 was “R” each time.
“GGGGRFKRFRKKFKKLFKKLSPVIPLLHLG [Peptide P267]” registered a CC50 in “in vitro” of 70 µg/mL.
As to Piperacillin/Tazobactam, the antibiotic resistance phenotype result with P. aeruginosa BAA-2112, in the data set with P. aeruginosa BAA-2111, with P. aeruginosa BAA-2113, with P. aeruginosa BAA-2114 and in the data set on P. aeruginosa BAA-2109 was “S” each time.
For Gentamicin, the antibiotic resistance phenotype result in the data set on P. aeruginosa BAA-2112 is listed as “S”; with P. aeruginosa BAA-2108, “I”; with P. aeruginosa BAA-2111, “S”; with P. aeruginosa BAA-2110, “I”; with P. aeruginosa BAA-2113, “S”; in the data set with P. aeruginosa BAA-2114, “S”. In addition, the antibiotic resistance phenotype result in the data set with P. aeruginosa BAA-2109 is “S”.
As to `O=C(O)c1cn(C2CC2)c2cc(N3CCNCC3)c(F)cc2c1=O` [Ciprofloxacin], the antibiotic resistance phenotype entry in the data set with P. aeruginosa BAA-2112 is on record as “S”; with P. aeruginosa BAA-2108 it was “S”; in the data set with P. aeruginosa BAA-2111, “S”; with P. aeruginosa BAA-2110, “S”; in the data set with P. aeruginosa BAA-2113 it was “S”; in the data set with P. aeruginosa BAA-2114 it was “R”. For the same compound, in the data set on P. aeruginosa BAA-2109, the antibiotic resistance phenotype entry is “S”.
Take “GGGGLRKRLRKFRNKIKEKLKKIGQKIQGLLPKLA [Peptide P271]”: in data set [1] (Cytotox CC50, concentration at which 50% cytotoxicity of mammalian cells is observed), the CC50 is 250 µg/mL.
Turning to Trimethoprim/Sulfamethoxazole, the antibiotic resistance phenotype entry with P. aeruginosa BAA-2112, in the data set on P. aeruginosa BAA-2108, with P. aeruginosa BAA-2111, in the data set on P. aeruginosa BAA-2110, in the data set on P. aeruginosa BAA-2113 and in the data set on P. aeruginosa BAA-2114 was “R” throughout. Besides, the antibiotic resistance phenotype entry in the data set with P. aeruginosa BAA-2109 is given as “R”.
For `CC1(C)S[C@@H]2[C@H](NC(=O)[C@H](N)c3ccccc3)C(=O)N2[C@H]1C(=O)O` [Ampicillin], the antibiotic resistance phenotype result in the data set on P. aeruginosa BAA-2112, in the data set with P. aeruginosa BAA-2108, in the data set with P. aeruginosa BAA-2111, with P. aeruginosa BAA-2110, with P. aeruginosa BAA-2113 and in the data set with P. aeruginosa BAA-2114 was “R” throughout. Moreover, the antibiotic resistance phenotype result in the data set on P. aeruginosa BAA-2109 is listed as “R”.
“GGGGIGKFLKKAKKFGKAFVKILKK [Peptide P261]”: the midpoint of cytotoxicity in data set [1], the CC50, lay at 250 µg/mL.
On to `CC(=O)OCC1=C(C(=O)O)N2C(=O)[C@@H](NC(=O)Cc3cccs3)[C@H]2SC1` [Cefalotin], for which the antibiotic resistance phenotype result with P. aeruginosa BAA-2112, with P. aeruginosa BAA-2108, in the data set on P. aeruginosa BAA-2111, with P. aeruginosa BAA-2113, in the data set with P. aeruginosa BAA-2114 and with P. aeruginosa BAA-2109 was “R” each time.
Regarding `CN(C)c1cc(NC(=O)CNC(C)(C)C)c(O)c2c1C[C@H]1C[C@H]3[C@H](N(C)C)C(O)=C(C(N)=O)C(=O)[C@@]3(O)C(O)=C1C2=O` [Tigecycline], the antibiotic resistance phenotype entry in the data set with P. aeruginosa BAA-2112, with P. aeruginosa BAA-2108, in the data set with P. aeruginosa BAA-2111, in the data set on P. aeruginosa BAA-2110, in the data set on P. aeruginosa BAA-2113 and with P. aeruginosa BAA-2114 was “R” each time. In addition, in the data set with P. aeruginosa BAA-2109, the antibiotic resistance phenotype entry is on record as “R”.
On to “GGGKFFRKLKKSVKKRAKEFFKKPRVIGVSIPF [Peptide P297]”, for which, in the data set with 293T, the “cytotoxicity to 293T relative to the MIC” value is roughly 200 fold. The compound further registered a CC50 in [1] of 780 µg/mL. For the same compound, the “half-life in the presence of serum” value in data set [2] was roughly 20 min.
For `CO[C@@]1(NC(=O)Cc2cccs2)C(=O)N2C(C(=O)O)=C(COC(N)=O)CS[C@@H]21` [Cefoxitin], the antibiotic resistance phenotype result in the data set with P. aeruginosa BAA-2112, in the data set with P. aeruginosa BAA-2108, with P. aeruginosa BAA-2111, in the data set with P. aeruginosa BAA-2110, with P. aeruginosa BAA-2113 and with P. aeruginosa BAA-2114 was “R” each time. Besides, the antibiotic resistance phenotype entry in the data set on P. aeruginosa BAA-2109 was “R”.
Regarding `CO/N=C(\C(=O)N[C@@H]1C(=O)N2C(C(=O)O)=C(COC(C)=O)CS[C@H]12)c1csc(N)n1` [Cefotaxime], the antibiotic resistance phenotype entry in the data set with P. aeruginosa BAA-2112, with P. aeruginosa BAA-2108, in the data set with P. aeruginosa BAA-2111, with P. aeruginosa BAA-2110, in the data set with P. aeruginosa BAA-2113 and with P. aeruginosa BAA-2114 was “R” each time. Further, the antibiotic resistance phenotype result in the data set with P. aeruginosa BAA-2109 is recorded as “R”.
For `CO/N=C(\C(=O)N[C@@H]1C(=O)N2C(C(=O)OC(C)OC(C)=O)=C(COC(N)=O)CS[C@H]12)c1ccco1` (some centres unmarked) [Cefuroxime Axetil], the antibiotic resistance phenotype entry with P. aeruginosa BAA-2112, in the data set on P. aeruginosa BAA-2108, in the data set with P. aeruginosa BAA-2111, with P. aeruginosa BAA-2113, in the data set with P. aeruginosa BAA-2114 and in the data set on P. aeruginosa BAA-2109 was “R” throughout.
On to Amoxicillin/Clavulanic Acid, for which the antibiotic resistance phenotype entry with P. aeruginosa BAA-2112, in the data set on P. aeruginosa BAA-2108, in the data set with P. aeruginosa BAA-2111, with P. aeruginosa BAA-2113, in the data set on P. aeruginosa BAA-2114 and in the data set on P. aeruginosa BAA-2109 was “R” throughout.
Consider `NCC[C@H](O)C(=O)N[C@@H]1C[C@H](N)[C@@H](O[C@H]2O[C@H](CN)[C@@H](O)[C@H](O)[C@H]2O)[C@H](O)[C@H]1O[C@H]1O[C@H](CO)[C@@H](O)[C@H](N)[C@H]1O` [Amikacin], for which the antibiotic resistance phenotype entry in the data set on P. aeruginosa BAA-2112, in the data set on P. aeruginosa BAA-2108, in the data set on P. aeruginosa BAA-2111, in the data set with P. aeruginosa BAA-2110, in the data set on P. aeruginosa BAA-2113 and in the data set on P. aeruginosa BAA-2114 was “S” in each case. For the same compound, the antibiotic resistance phenotype result in the data set on P. aeruginosa BAA-2109 is “S”.
Turning to `Cc1nnc(SCC2=C(C(=O)O)N3C(=O)[C@@H](NC(=O)Cn4cnnn4)[C@H]3SC2)s1` [Cefazolin], the antibiotic resistance phenotype entry in the data set on P. aeruginosa BAA-2112, in the data set with P. aeruginosa BAA-2111, in the data set on P. aeruginosa BAA-2110, in the data set on P. aeruginosa BAA-2113, in the data set on P. aeruginosa BAA-2114 and in the data set with P. aeruginosa BAA-2109 was “R” throughout.
Compound “GGGKRFKKFFKKLKNSVKKRAKKFFKKPRVIGVSIPF [Peptide P296]” gave a CC50 in [1] of 400 µg/mL.
Regarding `CO/N=C(\C(=O)N[C@@H]1C(=O)N2C(C(=O)O)=C(COC(N)=O)CS[C@H]12)c1ccco1` [Cefuroxime], the antibiotic resistance phenotype entry with P. aeruginosa BAA-2112, with P. aeruginosa BAA-2108, in the data set with P. aeruginosa BAA-2111, in the data set with P. aeruginosa BAA-2113, in the data set on P. aeruginosa BAA-2114 and in the data set on P. aeruginosa BAA-2109 was “R” throughout.

The record behind these values is patent US11969476B2, “Antibody molecule-drug conjugates and uses thereof” (priority 2020, dated 2024).
